IC50 and IC90 data for 29 compounds are collected here from ChEMBL document CHEMBL4483862, “Open-source discovery of chemical leads for next-generation chemoprotective antimalarials” (2018).

This assay concerns Plasmodium berghei. Description: Luciferase/luciferin-expressing antifolate-resistant parasites were used to infect a culture of HepG2 cells that were pre-incubated with compounds. Infected hepatocytes emit light due to the luciferase reaction. Assay results are presented as the percent inhibition of light emission compared to control. […]. Type of assay: functional. As to conditions: sporozoite; for IC90: read-out: LUCIFERASE INFECTION ASSAY - IC90.

As usually defined, the IC50 is the concentration at which inhibition is half-maximal. One may read the IC90 as the concentration at which the effect reaches the 90% level.

Take `Cc1ccc(C(=O)/C=C/C(=O)c2ccc(C)cc2)cc1`: the IC90 is above 10 µM. For the same compound, the concentration for half-maximal inhibition (IC50) (FFLUC_HILL_SLOPE 1.4, FFLUC_R_SQUARED 0.731, read-out: LUCIFERASE INFECTION ASSAY - IC50) is above 10 µM.

Regarding `CNC(=O)c1nnsc1[S+]([O-])c1ccc(Cl)cc1` (stereo not drawn), the IC90 is above 10.9 µM. Under “FFLUC_HILL_SLOPE 1.33, FFLUC_R_SQUARED 0.248, HEPG2TOX_HILL_SLOPE 10.3, HEPG2TOX_R_SQUARED 0.738, read-out: LUCIFERASE INFECTION ASSAY - IC50”, the 50% inhibitory concentration (IC50) was above 10.9 µM.

For `Cc1cc(-c2ccccc2)[s+]c(-c2ccccc2)c1`, the IC90 is above 10 µM. Also, the IC50 (FFLUC_HILL_SLOPE 1.28, FFLUC_R_SQUARED 0.852, PBLUC_HILL_SLOPE 0.191, PBLUC_R_SQUARED 0.106, read-out: LUCIFERASE INFECTION ASSAY - IC50) was above 10 µM.

`CSc1sc(C(=O)NNC(=O)Nc2ccccc2)c2c1C=CCC2`: the IC90 was above 9.18 µM. Moreover, the concentration for half-maximal inhibition (IC50) (FFLUC_HILL_SLOPE 1.34, FFLUC_R_SQUARED 0.714, read-out: LUCIFERASE INFECTION ASSAY - IC50) was above 9.18 µM.

Turning to `Cc1c(-c2ccccc2)nc2ccccc2c1C(=O)Nc1ccc2c(c1)OCCO2`, the IC90 was determined as 6.7 µM. In addition, under “FFLUC_HILL_SLOPE 1.33, FFLUC_R_SQUARED 0.515, PBLUC_HILL_SLOPE 1.27, PBLUC_R_SQUARED 0.667, read-out: LUCIFERASE INFECTION ASSAY - IC50”, the IC50 came out at 1.19 µM.

On to `CC(C)(C)c1ccc(CN2C(=O)CS/C2=C\C(=O)c2ccc(C(C)(C)C)cc2)cc1`, for which the 90% effect concentration (IC90) was above 10 µM. The IC50 (FFLUC_HILL_SLOPE 1.26, FFLUC_R_SQUARED 0.691, PBLUC_HILL_SLOPE 1.17, PBLUC_R_SQUARED 0.615, read-out: LUCIFERASE INFECTION ASSAY - IC50) is 1.59 µM.

As to `O=[N+]([O-])c1ccc2c(c1)nc(SCc1ccc(Cl)cc1Cl)n2-c1ccccc1`, the IC90 was above 10 µM. For the same compound, the IC50 (FFLUC_HILL_SLOPE 1.41, FFLUC_R_SQUARED 0.219, read-out: LUCIFERASE INFECTION ASSAY - IC50) was above 10 µM.

With `FC(F)(F)c1cc(N=C(C/C=N/c2cc(C(F)(F)F)cc(C(F)(F)F)c2)c2ccc(Cl)cc2)cc(C(F)(F)F)c1`, the 90% effect concentration (IC90) worked out at 0.673 µM. The half-maximal inhibitory concentration (IC50) (FFLUC_HILL_SLOPE 1.3, FFLUC_R_SQUARED 0.132, PBLUC_HILL_SLOPE 15.7, PBLUC_R_SQUARED 0.5, read-out: LUCIFERASE INFECTION ASSAY - IC50) is 0.585 µM.

Turning to `COc1ccc(C2C3CSc4ccccc4C3=NN2c2ccccc2)cc1` (stereo not drawn), the IC90 is above 8.86 µM. Besides, the concentration for half-maximal inhibition (IC50) (FFLUC_HILL_SLOPE 1.37, FFLUC_R_SQUARED 0.894, PBLUC_HILL_SLOPE 1.03, PBLUC_R_SQUARED 0.404, read-out: LUCIFERASE INFECTION ASSAY - IC50) is 4.95 µM.

Turning to `CCOC(=O)c1sc(N2N=C3/C(=C/c4ccccc4Cl)CCCC3C2c2ccccc2Cl)nc1C` (stereo not drawn), the IC90 was above 10 µM. Moreover, the IC50 (FFLUC_HILL_SLOPE 1.4, FFLUC_R_SQUARED 0.297, PBLUC_HILL_SLOPE 2.64, PBLUC_R_SQUARED 0.0563, read-out: LUCIFERASE INFECTION ASSAY - IC50) amounted to 4.97 µM.

For `Cc1cc(C(=O)NCc2nnc3ccccn23)c(C)n1C1CCCCC1`, the IC90 was determined as 6.61 µM. Moreover, the IC50 (FFLUC_HILL_SLOPE 1.4, FFLUC_R_SQUARED 0.0106, PBLUC_HILL_SLOPE 1.41, PBLUC_R_SQUARED 0.709, read-out: LUCIFERASE INFECTION ASSAY - IC50) amounted to 1.39 µM.

Turning to `CCN(Cc1ccc2c(c1)OCO2)C(=O)c1oc2c(F)cccc2c1C`, the IC90 was above 10 µM. Moreover, the IC50 (FFLUC_HILL_SLOPE 1.31, FFLUC_R_SQUARED 0.0559, read-out: LUCIFERASE INFECTION ASSAY - IC50) was above 10 µM.

For the compound `CCOC(=O)c1c(C)noc1/C(C)=N/OC(=O)Nc1cccc(C(F)(F)F)c1`, the 90% effect concentration (IC90) turned out to be 3.98 µM. Also, the IC50 (FFLUC_HILL_SLOPE 1.36, FFLUC_R_SQUARED 0.14, PBLUC_HILL_SLOPE 8.59, PBLUC_R_SQUARED 0.59, read-out: LUCIFERASE INFECTION ASSAY - IC50) came out at 3.08 µM.

In the case of `O=C(OCCSc1ccc([N+](=O)[O-])c2nonc12)c1ccccc1`, the IC90 is above 9.56 µM. For the same compound, the half-maximal inhibitory concentration (IC50) (FFLUC_HILL_SLOPE 1.36, FFLUC_R_SQUARED 0.568, HEPG2TOX_HILL_SLOPE 2.89, HEPG2TOX_R_SQUARED 0.849, PBLUC_HILL_SLOPE 0.85, PBLUC_R_SQUARED 0.48, read-out: LUCIFERASE INFECTION ASSAY - IC50) was found to be 5.19 µM.

As for `Cc1sc(-n2cccc2)c(C(=O)Nc2cccc(-c3nn[nH]n3)c2)c1C`, the IC90 was above 10 µM. Besides, the IC50 (FFLUC_HILL_SLOPE 1.33, FFLUC_R_SQUARED 0.778, read-out: LUCIFERASE INFECTION ASSAY - IC50) is above 10 µM.

Consider `Nc1ccc(-c2cnn3c(N4CCOCC4)ccnc23)cc1`, for which the concentration for an effect of 90% (IC90) is 8.75 µM. For the same compound, the IC50 (FFLUC_HILL_SLOPE 1.28, FFLUC_R_SQUARED 0.893, PBLUC_HILL_SLOPE 0.747, PBLUC_R_SQUARED 0.679, read-out: LUCIFERASE INFECTION ASSAY - IC50) is 0.462 µM.

For the compound `Nc1nccnc1C(=O)Nc1ccc(C23CC4CC(CC(C4)C2)C3)cc1`, the IC90 amounted to 9.45 µM. In addition, the half-inhibitory concentration (IC50) (FFLUC_HILL_SLOPE 1.35, FFLUC_R_SQUARED 0.9, PBLUC_HILL_SLOPE 1.78, PBLUC_R_SQUARED 0.606, read-out: LUCIFERASE INFECTION ASSAY - IC50) is 2.75 µM.

Take `CC(C)(C)c1ccc(C(=O)Nc2ncccc2O)cc1`: the 90% effect concentration (IC90) stood at 0.647 µM. For the setting “FFLUC_HILL_SLOPE 1.42, FFLUC_R_SQUARED 0.79, PBLUC_HILL_SLOPE 0.554, PBLUC_R_SQUARED 0.72, read-out: LUCIFERASE INFECTION ASSAY - IC50”, the IC50 was 0.0122 µM.

On to `Cc1ccc(C)c(-n2c(SCCOc3ccccc3C)nnc2-c2ccccc2Cl)c1`, for which the IC90 is above 10 µM. Also, where the note is “FFLUC_HILL_SLOPE 1.3, FFLUC_R_SQUARED 0.027, HEPG2TOX_HILL_SLOPE 7.63, HEPG2TOX_R_SQUARED 0.817, read-out: LUCIFERASE INFECTION ASSAY - IC50”, the 50% inhibitory concentration (IC50) is above 10 µM.

Consider `COC(=O)Cc1[nH]n(-c2nc3ccccc3s2)c(=O)c1C(C)=NCCO`, for which the IC90 was 3.67 µM. The half-maximal inhibitory concentration (IC50) (FFLUC_HILL_SLOPE 1.26, FFLUC_R_SQUARED 0.909, HEPG2TOX_HILL_SLOPE 2.15, HEPG2TOX_R_SQUARED 0.817, PBLUC_HILL_SLOPE 1.27, PBLUC_R_SQUARED 0.77, read-out: LUCIFERASE INFECTION ASSAY - IC50) worked out at 0.646 µM.

With `O=c1c(Cl)c(Cl)cnn1-c1cnc2ccccc2n1`, the IC90 was above 11.3 µM. The half-inhibitory concentration (IC50) (FFLUC_HILL_SLOPE 1.37, FFLUC_R_SQUARED 0.431, HEPG2TOX_HILL_SLOPE 2.28, HEPG2TOX_R_SQUARED 0.959, PBLUC_HILL_SLOPE 0.482, PBLUC_R_SQUARED 0.686, read-out: LUCIFERASE INFECTION ASSAY - IC50) stood at 0.149 µM.

Take `Cc1ccc(NC(=O)c2cnn(C(C)(C)C)c2C)cc1F`: the IC90 was 6.02 µM. Further, for the setting “FFLUC_HILL_SLOPE 1.31, FFLUC_R_SQUARED 0.708, PBLUC_HILL_SLOPE 0.501, PBLUC_R_SQUARED 0.734, read-out: LUCIFERASE INFECTION ASSAY - IC50”, the IC50 turned out to be 0.0753 µM.

In the case of `Cc1ccc(C(=O)Nc2nc3ccccc3[nH]2)cc1F`, the IC90 amounted to 4.06 µM. Moreover, under “FFLUC_HILL_SLOPE 1.36, FFLUC_R_SQUARED 0.795, PBLUC_HILL_SLOPE 11.8, PBLUC_R_SQUARED 0.45, read-out: LUCIFERASE INFECTION ASSAY - IC50”, the 50% inhibitory concentration (IC50) came out at 3.37 µM.

With `CCCc1ccc(C(=O)C(C)Sc2nnc(Cc3cccc4ccccc34)n2N)cc1` (stereo not drawn), the IC90 is above 10 µM. The IC50 (FFLUC_HILL_SLOPE 1.29, FFLUC_R_SQUARED 0.471, read-out: LUCIFERASE INFECTION ASSAY - IC50) was above 10 µM.

`O=c1c(Cl)c(Cl)cnn1-c1ccc(S(=O)(=O)Oc2ccccc2F)cc1`: the IC90 worked out at 8.08 µM. The concentration for half-maximal inhibition (IC50) (FFLUC_HILL_SLOPE 1.28, FFLUC_R_SQUARED 0.46, HEPG2TOX_HILL_SLOPE 12.5, HEPG2TOX_R_SQUARED 0.895, PBLUC_HILL_SLOPE 2.73, PBLUC_R_SQUARED 0.311, read-out: LUCIFERASE INFECTION ASSAY - IC50) was found to be 3.61 µM.

For `Cn1c(Sc2ncc([N+](=O)[O-])s2)n[nH]c1=O`, the IC90 was 7.26 µM. The IC50 (FFLUC_HILL_SLOPE 1.35, FFLUC_R_SQUARED 0.48, HEPG2TOX_HILL_SLOPE 8.97, HEPG2TOX_R_SQUARED 0.707, PBLUC_HILL_SLOPE 6.36, PBLUC_R_SQUARED 0.781, read-out: LUCIFERASE INFECTION ASSAY - IC50) worked out at 5.14 µM.

For the compound `CCOc1ccc(OS(=O)(=O)c2ccc(-n3ncc(Cl)c(Cl)c3=O)cc2)cc1`, the 90% effect concentration (IC90) was 3.34 µM. Also, for the setting “FFLUC_HILL_SLOPE 1.43, FFLUC_R_SQUARED 0.409, HEPG2TOX_HILL_SLOPE 3.88, HEPG2TOX_R_SQUARED 0.973, PBLUC_HILL_SLOPE 4.23, PBLUC_R_SQUARED 0.659, read-out: LUCIFERASE INFECTION ASSAY - IC50”, the IC50 came to 1.99 µM.

For the compound `COc1cccc(-c2nccc3n[nH]c(-c4cccc(OC(F)(F)F)c4)c23)c1`, the IC90 is above 10 µM. Besides, the IC50 (FFLUC_HILL_SLOPE 1.32, FFLUC_R_SQUARED 0.557, read-out: LUCIFERASE INFECTION ASSAY - IC50) was above 10 µM.

With `O=C(Nc1cccc([N+](=O)[O-])c1)c1[nH]nc2ccccc12`, the concentration for an effect of 90% (IC90) worked out at 2.96 µM. The IC50 (FFLUC_HILL_SLOPE 1.37, FFLUC_R_SQUARED 0.513, PBLUC_HILL_SLOPE 0.728, PBLUC_R_SQUARED 0.84, read-out: LUCIFERASE INFECTION ASSAY - IC50) worked out at 0.145 µM.
